Structures are written as SMILES.

Assay type in all cases: functional
Common to all, as to conditions: read-out: IZ

Assay [1] deals with Erwinia amylovora. The assay can be described thus: Antibacterial activity against Erwinia amylovora at 100 ug after 12 hrs by agar diffusion assay.
The test system of assay [2] is Erwinia amylovora. The assay can be described thus: Antibacterial activity against Erwinia amylovora at 10 ug after 12 hrs by agar diffusion assay. On the technique in general: In agar diffusion tests the substance spreads into inoculated agar from a disc or well.
Assay [3] deals with Erwinia amylovora. The assay can be described thus: Antibacterial activity against Erwinia amylovora at 1 ug after 12 hrs by agar diffusion assay.
Assay [4] deals with Erwinia amylovora. The assay can be described thus: Antibacterial activity against Erwinia amylovora at 0.1 ug after 12 hrs by agar diffusion assay.

Turning to `C=C1C[C@@H](C(=O)N[C@@H](C(=O)O)C(C)C)NC1=N`, in assay [1], the zone of inhibition at 100 µg/disc was determined as 10 mm.

On to `C=C1C[C@H](C(=O)N[C@H](C(=O)O)C(C)C)NC1=N`, for which the zone of inhibition at 10 µg/disc in assay [2] turned out to be 10 mm. In addition, the zone of inhibition at 100 µg/disc in assay [1] is 19 mm. The zone of inhibition at 1 µg/disc in assay [3] is 6 mm.

For the compound `C=C1C[C@@H](C(=O)N[C@H](C(=O)O)C(C)C)NC1=N`, the zone of inhibition at 1 µg/disc in assay [3] was found to be 19 mm. For the same compound, in assay [4], the zone of inhibition at 0.1 µg/disc worked out at 10 mm.

Source of the values: ChEMBL document CHEMBL1155397, “Synthesis of amino acid conjugates to 2-imino-3-methylene-5-carboxypyrrolidine and 2-imino-3-methylene-6-carboxypiperidine” (2010).
